Data: PubChem BioAssay (NCI)
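Interpolation was linear, between the two tested concentrations surrounding the appropriate level; five concentrations were tested over 48 hours in 96-well plates. GI50 = concentration required for 50% inhibition of growth. TGI: total growth inhibition.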

Tests used:
Experiment in all cases: NCI tumour cell line growth inhibition, 48 h
BT-549 breast = system: BT-549 breast
SK-MEL-2 melanoma = system: SK-MEL-2 melanoma
SF-539 CNS = system: SF-539 CNS
SK-MEL-28 melanoma = system: SK-MEL-28 melanoma
SR leukemia = system: SR leukemia
SF-295 CNS = system: SF-295 CNS
NCI-H226 lung = system: NCI-H226 lung
UACC-257 melanoma = system: UACC-257 melanoma
NCI/ADR-RES ovarian = system: NCI/ADR-RES ovarian
A498 renal = system: A498 renal

| SMILES | GI50 (BT-549 breast) [µM] | TGI (BT-549 breast) [µM] | GI50 (SK-MEL-2 melanoma) [µM] | TGI (SK-MEL-2 melanoma) [µM] | GI50 (SF-539 CNS) [µM] | TGI (SF-539 CNS) [µM] | GI50 (SK-MEL-28 melanoma) [µM] | TGI (SK-MEL-28 melanoma) [µM] | GI50 (SR leukemia) [µM] | TGI (SR leukemia) [µM] | GI50 (SF-295 CNS) [µM] | TGI (SF-295 CNS) [µM] | TGI (NCI-H226 lung) [µM] | TGI (UACC-257 melanoma) [µM] | TGI (NCI/ADR-RES ovarian) [µM] | TGI (A498 renal) [µM] | GI50 (NCI/ADR-RES ovarian) [µM] | GI50 (A498 renal) [µM] | GI50 (NCI-H226 lung) [µM] | GI50 (UACC-257 melanoma) [µM] |
| --- | --- | --- | --- | --- | --- | --- | --- | --- | --- | --- | --- | --- | --- | --- | --- | --- | --- | --- | --- | --- |
| N#C/C(=C/N1CCN(C(=O)c2ccco2)C1=S)C(=O)c1ccccc1 | 7.77 | 32.3 | 3.68 | 15.8 | 2.21 | 5.39 | 28 | > 100 | 2.84 | > 100 | 43.6 | > 100 | – | – | – | – | – | – | – | – |
| COc1cc2c(cc1O)C1Cc3ccc(OC)c(O)c3C(C2)N1C (configuration not stated) | – | > 100 | – | > 100 | – | > 100 | – | > 100 | – | – | – | > 100 | > 100 | > 100 | > 100 | > 100 | – | – | – | – |
| COc1ccc(-c2ccc(/C=N/n3c(C)n[nH]c3=S)o2)c([N+](=O)[O-])c1 | > 100 | > 100 | – | – | 39.4 | > 100 | > 100 | > 100 | – | – | 36.3 | > 100 | – | – | > 100 | > 100 | > 100 | > 100 | – | – |
| O=C(COc1ccc(/C=C2\CSc3ccccc3C2=O)cc1)Nc1nccs1 | – | – | 11.3 | 23.3 | 15 | 29.7 | 11.8 | 24.1 | – | – | 11.8 | 25.6 | 32.5 | 25.1 | 66.5 | 29.2 | 21.4 | 15.8 | 15.6 | 12.6 |
| CN(C)C(=S)/N=c1\ss/c(=N\C(=S)N(C)C)n1-c1ccc(Cl)c(Cl)c1 | – | – | – | > 100 | – | > 100 | – | > 100 | – | > 100 | – | > 100 | > 100 | > 100 | – | > 100 | – | – | – | – |
| COc1ccc2[nH]c3c4c(ccc3c2c1)C(=O)C=CC4=O | – | 84.9 | – | 28.5 | – | 32.2 | – | 20.2 | – | 2.79 | – | 53.9 | 49.9 | 27.7 | – | 48.4 | – | – | – | – |
| Cc1ccc(S(=O)(=O)NCCNc2nccc(-c3c(-c4ccc(F)cc4)nc4sccn34)n2)cc1 | 5.83 | 36 | 7.55 | 38.2 | 12.3 | 31 | – | – | – | – | 12.6 | 77.1 | 97.3 | – | > 100 | 14.4 | 4.83 | 2.33 | 5.14 | – |
| CC(C)(C=O)CC(C#N)/C(=N\NC(N)=O)C(=O)Nc1ccccc1C(N)=O (configuration not stated) | – | – | – | > 100 | – | > 100 | – | > 100 | – | > 100 | – | > 100 | > 100 | > 100 | – | > 100 | – | – | – | – |
| Cc1ccc(C2(O)CC(c3ccc([N+](=O)[O-])o3)=NN2C(=O)COc2ccc(Cl)cc2)cc1 (configuration not stated) | – | – | – | 16.1 | – | 15.4 | – | 22.4 | – | 6.52 | – | 27.6 | 39.7 | 17 | – | 22.2 | – | – | – | – |
| CCOC(=O)c1c[nH]c2oc(/C=N/N3CC(CN4CCOCC4)OC3=O)cc2c1=O (configuration not stated) | – | – | – | > 100 | – | > 100 | – | > 100 | – | > 100 | – | > 100 | > 100 | > 100 | > 100 | – | – | – | – | – |
| CC1=NN(C(=O)CC(=O)N(C(=O)c2ccccc2Cl)c2ccc(C)cc2)C(=O)C1N=Nc1ccc([N+](=O)[O-])cc1 (configuration not stated) | – | – | – | > 100 | – | 51.4 | – | > 100 | – | > 100 | – | > 100 | > 100 | > 100 | – | > 100 | – | – | – | – |
| CC(=O)/C=C/c1ccc(C#Cc2ccccc2)s1 | 13.5 | 28 | 20.5 | 35.4 | 17.3 | 31 | 15.5 | 28.8 | – | – | 19.1 | 42.7 | 36.4 | 34.3 | 33.9 | – | 15.8 | – | 18.4 | 19.1 |
| CC(C)OC(=O)NNc1cc(Cl)ccc1Cl | – | > 100 | – | > 100 | – | > 100 | – | > 100 | – | – | – | > 100 | – | > 100 | > 100 | 96.6 | – | – | – | – |
| CCC(C)(C)c1ccc(OCCCCCCN2CCNCC2)cc1 | – | – | 2.19 | 4.74 | 1.85 | 3.65 | 1.74 | 3.77 | 1.25 | 3.71 | 1.87 | 3.6 | 18 | 4.43 | 8.95 | 24.5 | 3.11 | 6.82 | 3.87 | 2.11 |
| C=C1C(=O)O[C@H]2/C=C(/C)C3=CC(=O)[C@@](C)(C[C@@H](OC(=O)/C(C)=C\C)C12)O3 (some centres not stated) | – | 3.11 | – | 16.6 | – | 8.22 | – | – | – | – | – | 29.3 | 11.1 | 5.69 | – | > 41.4 | – | – | – | – |
| CC1(C)O/C(=C\c2ccccc2)C(=O)/C(=C/c2ccccc2)O1 | – | – | – | 56.7 | – | > 100 | – | > 100 | – | 75.3 | – | > 100 | 96.3 | 71.7 | – | > 100 | – | – | – | – |
| CCOC(=N)CC(=O)Nc1cccc(C)c1C | – | – | – | > 100 | – | > 100 | – | > 100 | – | > 100 | – | > 100 | > 100 | > 100 | – | > 100 | – | – | – | – |
